Laboratory results as given in patent publication US20130281399A1, “TREATMENT OF DISEASES BY EPIGENETIC REGULATION” (RVX Therapeutics Inc., priority 2012, published 2013).

Assays:
Brd4 bromodomain 1 = target: T1, Brd4 bromodomain 1 (Homo sapiens, UniProt O60885); experiment: Inhibition of binding of tetra-acetylated histone H4 to Brd4 bromodomain 1 (TR-FRET); details: His-tagged Brd4 bromodomain 1 200 nM, tetra-acetylated histone H4 peptide 25-50 nM, 2 hours room temperature
T1 construct: made in house; host or cells: E. coli BL21(DE3)
Experimental: Proteins were cloned and overexpressed with a N-terminal 6×His tag, then purified by nickel affinity followed by size exclusion chromatography. Briefly, E. coli BL21(DE3) cells were transformed with a recombinant expression vector encoding N-terminally Nickel affinity tagged bromodomains from Brd2, Brd3, Brd4. Cell cultures were incubated at 37° C. with shaking to the appropriate density and induced overnight with IPTG. The supernatant of lysed cells was loaded onto Ni-IDA column for purification. Eluted protein was pooled, concentrated and further purified by size exclusion chromatography. Fractions representing monomeric protein were pooled, concentrated, aliquoted, and frozen at −80° C. for use in subsequent experiments.
For inhibition assays, serially diluted test compound was added to these reactions in a 0.2% final concentration of DMSO. Final buffer concentrations were 30 mM HEPES pH 7.4, 30 mM NaCl, 0.3 mM CHAPS, 20 mM phosphate pH 7.0, 320 mM KF, 0.08% BSA). […] The binding inhibitory activity was shown by a decrease in 665 nm fluorescence relative to 620 nm. IC50 values were determined from a dose response curve.

Row | SMILES | melting point [°C] | FRET activity (<50 uM) (Brd4 bromodomain 1)
1 | COc1cc(OC)c2c(=O)[nH]c(-c3cc(C)c(OCCN4CCCC4)c(C)c3)nc2n1 | 228 to 230 | 
2 | COc1cc(OC)c2c(=O)[nH]c(-c3ccc(N4CCC(O)CC4)cc3)nc2n1 [Example 8, 2-(4-(4-Hydroxypiperidin-1-yl)phenyl)-5,7-dimethoxypyrido[2,3-d]pyrimidin-4(3H)-one] | 284 to 286 | Active
3 | COCCOc1cc(OC)c2c(=O)[nH]c(-c3ccc(N4C[C@@H](C)N(C(C)=O)[C@@H](C)C4)cc3)nc2c1 [Example 9, 2-(4-((3R,5S)-4-Acetyl-3,5-dimethylpiperazin-1-yl)phenyl)-5-methoxy-7-(2-methoxyethoxy)quinazolin-4(3H)-one] | 225 to 227 | Active
4 | COc1cccc2nc(-c3cc(C)c(OCCN4CCCC4)c(C)c3)[nH]c(=O)c12 [Example 66, 2-(3,5-Dimethyl-4-(2-(pyrrolidin-1-yl)ethoxy)phenyl)-5-methoxyquinazolin-4(3H)-one] | 157 to 158 | Active
5 | Cc1cc(-c2nc3cc(Cl)cc(Cl)c3c(=O)[nH]2)cc(C)c1OCCN1CCCC1 [Example 67, 5,7-Dichloro-2-(3,5-dimethyl-4-(2-(pyrrolidin-1-yl)ethoxy)phenyl)quinazolin-4(3H)-one] | 209 to 210 | Inactive
6 | COc1cc(OC)c2c(=O)[nH]c(-c3cc(C)c(OCCN4CCN(C(C)=O)CC4)c(C)c3)nc2c1 [Example 68, 2-(4-(2-(4-Acetylpiperazin-1-yl)ethoxy)-3,5-dimethylphenyl)-5,7-dimethoxyquinazolin-4(3H)-one] | 213 to 214 | Active
7 | COc1cc(OC)c2c(=O)[nH]c(-c3cc(C)c(OCCn4ccnc4)c(C)c3)nc2c1 [Example 69, 2-(4-(2-(1H-Imidazol-1-yl)ethoxy)-3,5-dimethylphenyl)-5,7-dimethoxyquinazolin-4(3H)-one] | 218 to 219 | Active
8 | COc1ccc2c(=O)[nH]c(-c3cc(C)c(OCCN4CCCC4)c(C)c3)nc2c1 [Example 70, 2-(3,5-Dimethyl-4-(2-(pyrrolidin-1-yl)ethoxy)phenyl)-7-methoxyquinazolin-4(3H)-one] | 218 to 220 | Inactive
9 | COc1cc(OC)c2c(=O)[nH]c(-c3cc(C)c(OCCN4CCN(C)CC4)c(C)c3)nc2c1 [Example 71, 2-(3,5-Dimethyl-4-(2-(4-methylpiperazin-1-yl)ethoxy)phenyl)-5,7-dimethoxyquinazolin-4(3H)-one] | 180 to 182 | Active
10 | COc1cc(OC)c2c(=O)[nH]c(-c3cc(C)c(OCCN4C(=O)CN(C(C)C)C4=O)c(C)c3)nc2c1 [Example 74, 3-(2-(4-(5,7-Dimethoxy-4-oxo-3,4-dihydroquinazolin-2-yl)-2,6-dimethylphenoxy)ethyl)-1-isopropylimidazolidine-2,4-dione] | 219 to 221 | Active
11 | COc1cc(OC)c2c(=O)[nH]c(-c3ccc(OCCN4CCCC4)cc3)nc2c1 [Example 76, 5,7-Dimethoxy-2-(4-(2-(pyrrolidin-1-yl)ethoxy)phenyl)quinazolin-4(3H)-one] | 226 to 227 | Active
12 | COc1cc(OC)c2c(=O)[nH]c(-c3cc(C)c(CCCN4CCCC4)c(C)c3)nc2c1 [Example 77, 2-(3,5-Dimethyl-4-(3-(pyrrolidin-1-yl)propyl)phenyl)-5,7-dimethoxyquinazolin-4(3H)-one] | 194 to 196 | Active
13 | COc1cc(OC)c2c(=O)[nH]c(-c3cc(C)c(OCCCCN4CCCC4)c(C)c3)nc2c1 [Example 78, 2-(3,5-Dimethyl-4-(4-(pyrrolidin-1-yl)butoxy)phenyl)-5,7-dimethoxyquinazolin-4(3H)-one] | 180 to 181 | Active
14 | COc1cc(OC)c2c(=O)[nH]c(-c3cc(C)c(OCCN4C(=O)NC(c5ccccc5)C4=O)c(C)c3)nc2c1 (centres unmarked) [Example 79, 3-(2-(4-(5,7-Dimethoxy-4-oxo-3,4-dihydroquinazolin-2-yl)-2,6-dimethylphenoxy)ethyl)-5-phenylimidazolidine-2,4-dione] | 219.6 to 221.4 | Active
15 | COc1cc(OC)c2c(=O)[nH]c(-c3ccc(CN4C(=O)CNC4=O)cc3)nc2c1 [Example 80, 3-(4-(5,7-Dimethoxy-4-oxo-3,4-dihydroquinazolin-2-yl)benzyl)imidazolidine-2,4-dione] | 317 to 318 | Inactive
16 | Cc1cc(-c2nc3cccc(Cl)c3c(=O)[nH]2)cc(C)c1OCCN1CCCC1 [Example 83, 5-Chloro-2-(3,5-dimethyl-4-(2-(pyrrolidin-1-yl)ethoxy)phenyl)quinazolin-4(3H)-one] | 179 to 180 | Inactive

Row | SMILES | melting point [°C] | FRET activity (<50 uM) (Brd4 bromodomain 1)
17 | COc1cc(OC)c2c(=O)[nH]c(-c3cc(C)c(OCCN4CCCCCC4)c(C)c3)nc2c1 [Example 84, 2-(4-(2-(Azepan-1-yl)ethoxy)-3,5-dimethylphenyl)-5,7-dimethoxyquinazolin-4(3H)-one] | 198 to 199 | Active
18 | COc1cc(OC)c2c(=O)[nH]c(-c3cc(C)c(OCCN4CCC4)c(C)c3)nc2c1 [Example 86, 2-(4-(2-(Azetidin-1-yl)ethoxy)-3,5-dimethylphenyl)-5,7-dimethoxyquinazolin-4(3H)-one] | 204 to 205 | Active
19 | COc1cc(OC)c2c(=O)[nH]c(-c3cc(C)c(OCCN4CC(NC(C)=O)C4)c(C)c3)nc2c1 [Example 87, N-(1-(2-(4-(5,7-Dimethoxy-4-oxo-3,4-dihydroquinazolin-2-yl)-2,6-dimethylphenoxy)ethyl)azetidin-3-yl)acetamide] | 111.8 to 113.6 | Active
20 | Cc1cc(-c2nc3cc(OC(C)C)cc(OC(C)C)c3c(=O)[nH]2)cc(C)c1OCCN1CCCC1 [Example 88, 2-(3,5-Dimethyl-4-(2-(pyrrolidin-1-yl)ethoxy)phenyl)-5,7-diisopropoxyquinazolin-4(3H)-one] | 65 to 68 | Inactive
21 | Cc1cc(C)c2c(=O)[nH]c(-c3cc(C)c(OCCN4CCCC4)c(C)c3)nc2c1 [Example 89, 2-(3,5-Dimethyl-4-(2-(pyrrolidin-1-yl)ethoxy)phenyl)-5,7-dimethylquinazolin-4(3H)-one] | 181 to 182 | Active
22 | COc1cc(OC)c2c(=O)[nH]c(-c3ccc(CN4CCC(NC(C)C)CC4)cc3)nc2c1 [Example 95, 2-(4-((4-(Isopropylamino)piperidin-1-yl)methyl)phenyl)-5,7-dimethoxyquinazolin-4(3H)-one] |  | Active
23 | COc1cc(OC)c2c(=O)[nH]c(-c3ccc(Cc4nnn[nH]4)cc3)nc2c1 [Example 96, 2-(4-((1H-Tetrazol-5-yl)methyl)phenyl)-5,7-dimethoxyquinazolin-4(3H)-one] | 295 to 296 | Active
24 | COc1cc(OC)c2c(=O)[nH]c(-c3cc(C)c(OCCN4C(=O)CCC4=O)c(C)c3)nc2c1 [Example 97, 1-(2-(4-(5,7-Dimethoxy-4-oxo-3,4-dihydroquinazolin-2-yl)-2,6-dimethylphenoxy)ethyl)pyrrolidine-2,5-dione] |  | Active
25 | COc1cc(OCCOCc2ccccc2)cc2nc(-c3ccncc3)[nH]c(=O)c12 [Example 98, 7-(2-(Benzyloxy)ethoxy)-5-methoxy-2-(pyridin-4-yl)quinazolin-4(3H)-one] | 228.2 to 229.9 | Inactive
26 | COc1cc(OC)c2c(=O)[nH]c(-c3cc(C)nc(C)c3)nc2c1 [Example 99, 2-(2,6-Dimethylpyridin-4-yl)-5,7-dimethoxyquinazolin-4(3H)-one] | 291 to 292 | Active
27 | COCCOc1cc(OC)c2c(=O)[nH]c(-c3cc(C)nc(C)c3)nc2c1 [Example 100, 2-(2,6-Dimethylpyridin-4-yl)-5-methoxy-7-(2-methoxyethoxy)quinazolin-4(3H)-one] | 228.8 to 230.4 | Active
28 | COCCOc1cc(OCCOC)c2c(=O)[nH]c(-c3cc(C)nc(C)c3)nc2c1 [Example 101, 2-(2,6-Dimethylpyridin-4-yl)-5,7-bis(2-methoxyethoxy)quinazolin-4(3H)-one] | 149.8 to 151.4 | Active
29 | COCCOc1cc(OC)cc2nc(-c3cc(C)nc(C)c3)[nH]c(=O)c12 [Example 105, 2-(2,6-Dimethylpyridin-4-yl)-7-methoxy-5-(2-methoxyethoxy)quinazolin-4(3H)-one] |  | Active
30 | COc1cc(OCCOC(C)C)cc2nc(-c3cc(C)nc(C)c3)[nH]c(=O)c12 [Example 107, 2-(2,6-Dimethylpyridin-4-yl)-7-(2-isopropoxyethoxy)-5-methoxyquinazolin-4(3H)-one] | 188 to 189 | 
31 | COc1cccc(-c2nc3cc(OC)cc(OC)c3c(=O)[nH]2)c1 [Example 116, 5,7-Dimethoxy-2-(3-methoxyphenyl)quinazolin-4(3H)-one] |  | Inactive
